Patent US11123338B2, “C-met modulator pharmaceutical compositions” (Exelixis, Inc., priority 2010, dated 2021)

Legend:
[1] = Solid-state stability on exposure to high humidity and high temperature; type: physicochemical
[2] = Moisture uptake / hygroscopicity (moisture vapor isotherm); type: physicochemical; details: for Hygroscopicity (remark in words): salt screen summary table
Experimental: Moisture sorption isotherms were collected in a VTI SGA-100 Symmetric Vapor Analyzer using approximately 10 mg of sample. The sample was dried at 60° C. until the loss rate of less than or equal to 0.0005 weight percent per minute was obtained for 10 minutes. […] Equilibration at each RH was reached when the rate of less than or equal to 0.0003 weight percent per minute for 35 minutes was achieved, or at a maximum of 600 minutes.

[3] = Water solubility of free base and salts from the salt screen; details: for Solubility (remark in words): salt screen
Experimental: The water solubility of the various salts was determined using 10 mg solids per mL water.

[4] = Thermal stability by DSC/TGA; type: physicochemical
Experimental: The sample (about 10-30 mg) was placed in a previously tared platinum pan. The weight of the sample was measured accurately and recorded to a thousand of a milligram. The furnace was purged with nitrogen gas at 100 mL/min. Data were collected between room temperature and 300° C. at 10° C./min heating rate.
The sample (about 2-6 mg) was weighed in an aluminum pan, accurately recorded to a hundredth of a milligram, and transferred to the DSC. The instrument was purged with nitrogen gas at 50 mL/min. Data were collected between room temperature and 300° C. at a 10° C./min heating rate.

[5] = Storage stability under controlled temperature / relative humidity; type: physicochemical
[6] = water, thermodynamic from solid
[7] = water solubility, 10 mg solids per mL water

Molecule	Hygroscopicity (remark in words) [2]	Solubility (remark in words) ([3]; water solubility)	solubility [3, 6] [µg/mL]	solubility [3, 7] [µg/mL]	other results
Cl [Chloride]	Crystalline but Hygroscopic; possible	–	–	–	Moisture sensitivity (phase behaviour on exposure) ([1]; high humidity (75 percent RH) and high temperature (40° C.)): changing phase
COc1cc2nccc(Oc3ccc(NC(=O)C4(C(=O)Nc5ccc(F)cc5)CC4)cc3)c2cc1OC [Free base, N-[4-[(6,7-Dimethoxy-4-quinolinyl)oxy]phenyl]-N′-(4-fluorophenyl)-1,1-cyclopropanedicarboxamide]	–	very low solubility	< 1	–	–
COc1cc2nccc(Oc3ccc(NC(=O)C4(C(=O)Nc5ccc(F)cc5)CC4)cc3)c2cc1OC.O=C(O)C[C@@H](O)C(=O)O [L-Malate, cyclopropane-1,1-dicarboxylic acid [4-(6,7-dimethoxy-quinoline-4-yloxy)-phenyl]-amide (4-fluoro-phenyl)-amide, (L) malate salt]	Crystalline; non-Hygroscopic with no	–	59	–	Stable up to (DSC/TGA) [4]: up to 185 °C; Change in assay, purity, moisture, and dissolution ([5]; 25° C./60 percent relative humidity (RH)): no change; Change in assay, purity, moisture, and dissolution ([5]; 40° C./60 percent RH): no change; Chemical/physical stability (remark in words) ([5]; salt screen summary table): chemical/physical stability.; Solubility (remark in words) ([3]; water solubility, listed as L-malate salt, malate salt): sufficient solubility; Solid state phase and degree of crystallinity after exposure ([1]; 75 percent RH at 40° C. for 1 week): remained unchanged; Amount of water taken up ([2]; at 90 percent RH): about 0.60 weight percent
O=C(O)[C@H](O)[C@@H](O)C(=O)O [L-Tartrate]	Hygroscopic.	–	–	–	–
Phosphate	Crystalline but Hygroscopic.	–	–	26	Weight gain due to absorption of H2O ([2]; highest among the salts tested): 8%
Tosylate	–	Crystalline salt, low solubility	–	7	–
